How the values were obtained:
MES-SA/B1 = test: Cytotoxicity in triple coculture, MES-SA/B1 mOrange; type: cell-based, human
Experimental: (§1) Cell lines were purchased from the American Type Culture Collection (ATCC). MES-SA/B1 is a human MDR1-transfected derivative of MES-SA, and MES-SA mCherry, MES-SA/B1 mOrange, and MES-SA/Dx5 eGFP were engineered to stably express the respective fluorescent proteins previously.[62] Cells were kept in culture medium (DMEM) supplemented with 10% fetal bovine serum, 2 mM L-glutamine, 100 units/mL penicillin, and 100 μg/mL streptomycin (Thermo Fisher). One week before use, MES-SA/Dx5 eGFP cells were treated with 0.5 μM doxorubicin to ensure ABCB1/P-gp expression.
(§2) The tested compounds were dissolved in 50% (v/v) DMSO/PBS’ buffer to prepare 5–10 mM stock solutions, which were diluted in complete culture medium. Constitutive expression of the fluorescent proteins allowed multiplexing in cytotoxicity experiments.[62] Cells were mixed before seeding in 384-well plates: in double cocultures, MES-SA mCherry and MES-SA/Dx5 eGFP cells were seeded at 1250–1250 cells/well (in total 2500 cells/well); while in triple cocultures, MES-SA mCherry, MES-SA/Dx5 eGFP and MES-SA/B1 mOrange cells were seeded at 800–800–800 cells/well (in total 2400 cells/well). Serial dilutions of the compounds were added 24 h after seeding. To address the effect of P-gp function, TQ was added at a nontoxic concentration (0.4 μM) 15 min before the test compounds. The intensity of the fluorescent proteins, which is proportional to cell mass, was measured after 144 h of incubation at the respective fluorescent channels (excitation/emission: eGFP: 485 nm/510 nm; mOrange: 545 nm/567 nm; mCherry: 585 nm/610 nm). pIC50 values were calculated by a custom program written by Judit Sessler in C#.[62] IC50 values and standard deviation were calculated from average pIC50 values from at least 3 independent measurements.

MES-SA [1] = test: Cytotoxicity in triple coculture, MES-SA mCherry; type: cell-based, human; details: Homo sapiens, MES-SA/B1, MES-SA/Dx5, 144 h
Experimental: as §1, §2

MES-SA/Dx5 [2] = test: Cytotoxicity in triple coculture, MES-SA/Dx5 eGFP; type: cell-based, human
Experimental: as §1, §2

MES-SA/Dx5 [3] = test: Cytotoxicity in double coculture, MES-SA/Dx5 eGFP; details: for SR = IC50 (MES-SA)/IC50 (MES-SA/Dx5): double coculture; for IC50: read-out: IC50 MES-SA/Dx5, double coculture with MES-SA, 144 h
Experimental: (§4) Therefore, the novel half-sandwich complexes (1–4) and their corresponding ligands were tested against a coculture of MES-SA and MES-SA/Dx5 cells expressing the fluorescent proteins mCherry or eGFP, respectively.[62]
(§5) The tested compounds were dissolved in 50% (v/v) DMSO/PBS’ buffer to prepare 5–10 mM stock solutions, which were diluted in complete culture medium. Constitutive expression of the fluorescent proteins allowed multiplexing in cytotoxicity experiments.[62] […] Serial dilutions of the compounds were added 24 h after seeding. To address the effect of P-gp function, TQ was added at a nontoxic concentration (0.4 μM) 15 min before the test compounds. […] IC50 values and standard deviation were calculated from average pIC50 values from at least 3 independent measurements.

[4] = pKa of in situ prepared complexes by pH-potentiometry; type: physicochemical; details: I = 0.20 M KNO3
From the text: The results, shown in Table 2, indicate good agreement between the data obtained by the different methods. It should be noted that these processes show overlap in all cases, and therefore, the assignment of the pKa values to the given moieties cannot be made reliably. However, by comparing the spectral changes with those observed for HQ and other simple derivatives,[25] it can be concluded that the lower pKa likely belongs to the deprotonation of the aqua coligand.
The pH-potentiometric measurements were carried out at 25.0 ± 0.1 °C in water in the pH range between 2.0 and 11.5 and at a constant ionic strength of 0.20 M KNO3. The titrations were performed in a carbonate-free KOH solution (0.20 M). The exact concentrations of the HNO3 and KOH solutions were determined by pH-potentiometric titrations. An Orion 710A pH-meter equipped with a Metrohm combined electrode (type 6.0234.100) and a Metrohm 665 Dosimat buret were used for this purpose. […] The average water ionization constant, pKw, was determined as 13.76 ± 0.01, which is in good agreement with the literature data.[67] The initial volume of the samples was 10.0 mL. […] Samples were degassed by bubbling purified argon through them for about 10 min prior to the measurements, and the inert gas was also passed over the solutions during the titrations. The computer program Hyperquad2013[64] was utilized to establish the stoichiometry of the species and to calculate the equilibrium constants.

[5] = n-octanol/water distribution coefficient (shake-flask); type: physicochemical; details: pH 7.4, […]
Experimental: The exchange of the coligand (H2O/Cl^–) changes the overall charge of the complex, thus affecting lipophilicity. […] The traditional shake-flask method was used to obtain distribution coefficients of the ligands as well as of the complexes in n-octanol/buffered aqueous solution (20 mM phosphate, pH = 7.4) at different chloride ion concentrations (4, 24, and 100 mM) using UV–vis spectrophotometry (Agilent Cary 8454 diode array spectrophotometer, Santa Clara, CA, USA) for the analysis. The compounds were dissolved in buffered aqueous solutions previously saturated with n-octanol. Then the aqueous and n-octanol phases were gently mixed in different volume ratios (using 1:60 for the ligands, 1:1 for the RhCp* and 1:2 for the RuCym complexes ratios of n-octanol to buffered aqueous solution volume) for 4 h, followed by phase separation. Then the UV–vis spectrum of the aqueous or n-octanol phase was recorded and compared to the reference spectrum. Stock solutions were made in the aqueous phase, and distribution coefficients (DpH) were calculated by the following equation: [drawing 3]

[6] = tested on: Staphylococcus aureus (ATCC 25923); test: Antibacterial MIC, S. aureus; type: cell-based; details: Mueller Hinton Broth, 37 °C, 18 h
Experimental: (§3) Escherichia coli (ATCC 25922) was used as Gram-negative strain and Staphylococcus aureus (ATCC 25923, methicillin-resistant (MRSA) ATCC 43300) strains were applied as Gram-positive bacterial cultures in the experiments. MIC values of the compounds were determined in 96-well plates based on the Clinical and Laboratory Standard Institute guidelines (CLSI guidelines).[76] The stock solutions of the compounds (same as those used for cytotoxicity experiments) were diluted in 100 μL of Mueller Hinton Broth. Then, 10^–4 dilution of an overnight bacterial culture in 100 μL of medium was added to each well, with the exception of the medium control wells.

[7] = tested on: methicillin-resistant S. aureus (MRSA) ATCC 43300; test: Antibacterial MIC, MRSA; type: cell-based, Staphylococcus aureus; details: Mueller Hinton Broth, 37 °C, 18 h
Experimental: as §3

[8] = target: human serum albumin (HSA), site II (Homo sapiens, UniProt P02768); test: HSA dansylglycine (DG) site marker displacement; details: cHSA = cDG = 1 μM; λEX = 335 nm (DG); pH 7.4 (PBS’); […]; 24 h
Chain of human serum albumin (HSA), site II (P02768 25-609): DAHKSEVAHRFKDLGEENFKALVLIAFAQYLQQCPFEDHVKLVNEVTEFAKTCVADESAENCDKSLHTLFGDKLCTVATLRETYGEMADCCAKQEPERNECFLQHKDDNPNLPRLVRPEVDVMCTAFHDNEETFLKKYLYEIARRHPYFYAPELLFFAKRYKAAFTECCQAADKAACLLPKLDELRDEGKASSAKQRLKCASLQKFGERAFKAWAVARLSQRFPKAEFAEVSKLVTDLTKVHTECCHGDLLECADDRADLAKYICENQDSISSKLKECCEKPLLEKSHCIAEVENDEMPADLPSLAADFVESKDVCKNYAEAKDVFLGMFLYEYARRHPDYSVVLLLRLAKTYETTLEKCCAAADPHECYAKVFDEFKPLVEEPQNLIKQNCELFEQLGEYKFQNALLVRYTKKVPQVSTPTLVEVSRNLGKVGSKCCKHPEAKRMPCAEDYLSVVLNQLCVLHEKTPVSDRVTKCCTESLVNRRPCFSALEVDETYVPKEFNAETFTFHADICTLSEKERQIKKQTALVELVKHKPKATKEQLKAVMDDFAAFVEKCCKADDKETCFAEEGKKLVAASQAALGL
Experimental: (§6) Next, spectrofluorometric measurements were also performed to gain insight into the binding interactions that may occur in the hydrophobic binding sites of HSA. Tryptophan (Trp214) quenching experiments were conducted for the complexes (1–4) (for complex (3) see Figure S31) and their ligands). […] To monitor the binding at site II, site marker displacement experiments were performed using dansylglycine (DG).
(§7) Fluorescence measurements were carried out on a Fluoromax (Horiba Jobin Yvon, Longjumeau, France) spectrofluorometer using a 1 cm × 1 cm quartz cuvette. […] Excitation wavelengths were 295 nm for Trp-214 quenching and 340 nm for the DG displacement studies. The calculated conditional stability constants for HSA–complex species were obtained using the computer program HypSpec.[64] Calculations always were based on data obtained from at least two independent measurements.

[9] = H2O/Cl– coligand exchange by UV–vis titration with chloride ions; type: physicochemical
Experimental: When the isolated complexes (1–4) are dissolved in water, their chlorido coligand can be replaced by water, or vice versa in the aqua complexes [M(arene)(HL)(H2O)]^2+, the H2O → Cl^– exchange process can take place in the presence of chloride ions. The chloride ion affinity of the complexes was also investigated by UV–vis spectrophotometry. RhCp* and RuCym complexes were titrated with chloride ions at pH 7.4 and 6.0, respectively. For this experiment, pH values were chosen at which the formation of the mixed hydroxido species is negligible. A representative spectrum series for complex (4) is shown in Figure S27, and the calculated conditional exchange constants (logK’ (H2O/Cl^–)) are given in Table 2 and in Figure S23. […] The complexes of the amino acid hybrids HQCl-D-Pro and HQCl-D-hPro have lower logK’ (H2O/Cl^–) constants most likely due to the repulsive effect of the nearby COO^– group.[26]

[10] = tested on: Escherichia coli (ATCC 25922); test: Antibacterial MIC, E. coli; type: cell-based; details: Mueller Hinton Broth, 37 °C, 18 h
Experimental: as §3

MES-SA [11] = test: Cytotoxicity in double coculture, MES-SA mCherry; details: read-out: IC50 MES-SA; double coculture with MES-SA/Dx5; 144 h; without TQ
Experimental: as §4, §5

[12] = target: human serum albumin (HSA), Trp214 / site I (Homo sapiens, UniProt P02768); test: HSA Trp214 fluorescence quenching; details: 1 μM HSA; λEX = 295 nm (Trp-214); pH 7.4 (PBS’); […]; 24 h
Chain of human serum albumin (HSA), Trp214 / site I (P02768 25-609): as above
Experimental: as §6, §7

[13] = pKa of in situ prepared complexes by UV–vis titration; type: physicochemical; details: 1:1 system, absence of chloride, I = 0.20 M KNO3
From the text: The UV–vis spectra of the complexes prepared in situ were then followed at different pH values in the absence of chloride ions. No spectral changes were observed between pH = 2–6.3 (RuCym) or 7.5 (RhCp*), indicating high solution stability in both cases; however, the changes were significant in the basic pH range (Figure S22). In the case of RuCym complexes, two overlapping processes associated with the deprotonation of the coordinated water molecule and the noncoordinated Npyr/pipH^+ moiety were observed. […] The pKa values determined for these processes are shown in Table 2 and Figure S23 together with the values obtained for complexes formed with the amino acid hybrids HQCl-D-Pro and HQCl-D-hPro (Chart 2) for comparison.[26]
An Agilent Cary 8454 diode array spectrophotometer was utilized to obtain UV–vis spectra in the wavelength range 190–1100 nm. The path length (l) was 1 or 2 cm in most cases (the actual l is always indicated in the legends of the figures). The concentrations of the ligands and complexes were between 36 and 100 μM. The ligands were titrated in the presence of 10 equiv of EDTA. Individual samples contained 0–37 μM HSA, 0–206 μM MIM, 0–759 μM AHA, or 0–733 μM FHA. Spectra were always background and baseline corrected. The computer program HypSpec[64] was used to obtain stability constants.

[14] = Ligand displacement with 2,2′-bipyridine, conditional formation constant; type: physicochemical; details: pH 7.4; bpy competitor; UV–vis
From the text: These pKa (H2O) values are lower than those of the complexes formed with the corresponding amino acid hybrids (HQCl-D-Pro, HQCl-D-hPro, Figure S23). Thus, the predominant complex at pH 7.4 is [M(arene)(HL)(H2O)]^2+ in all cases, in which the bidentate ligand coordinates via the (N,O^–) donor set and the pyridinium or pyrrolidinium nitrogens are protonated just like in the isolated complexes (Chart 3). Based on the unchanged spectra (vide supra), these types of complexes show no dissociation at pH = 2, indicating their high stability and hindering the direct determination of the formation constants. Therefore, a ligand displacement experiment was performed using UV–vis spectrophotometry with 2,2′-bipyridine (bpy) as a competitor to determine conditional formation constants at pH = 7.4 (Figure S25). […] Nevertheless, these values indicate a high stability of the complexes in solution, and <1% of dissociation is estimated at 1 μM concentration at pH = 7.4. The ligand displacement measurement could not be applied to the RuCym complexes due to the release of the p-cymene ring followed by the formation of the mixed ligand complex with bpy and oxidation of the metal center (Figure S26), similarly to analogue complexes.[14],[26],[27]

| Compound | SR = IC50 (MES-SA)/IC50 (MES-SA/Dx5) (MES-SA/Dx5 [3]; + 0.4 μM tariquidar (TQ)) | SR = IC50 (MES-SA)/IC50 (MES-SA/Dx5) (MES-SA/Dx5 [3]; without TQ) | IC50 (MES-SA/Dx5 [3]; without TQ) [µM] | pKa (H2O) [4] | pKa (Npyr/pipH+) [4] | logD7.4 ([5]; c(Cl–) = 4 mM) | logD7.4 ([5]; c(Cl–) = 24 mM) | logD7.4 ([5]; c(Cl–) = 100 mM) | MIC [6] [µM] | MIC [7] [µM] | logK’(DG) [8] | MIC [10] [µM] | IC50 (MES-SA [11]) [µM] | logK’(quenching) [12] | further results |
| --- | --- | --- | --- | --- | --- | --- | --- | --- | --- | --- | --- | --- | --- | --- | --- |
| COc1cc([C@@H]2c3cc4c(cc3[C@@H](O[C@@H]3O[C@@H]5CO[C@@H](C)O[C@H]5[C@H](O)[C@H]3O)[C@H]3COC(=O)[C@H]23)OCO4)cc(OC)c1O [etoposide] | – | – | – | – | – | – | – | – | – | – | – | – | – | – | SR B1 = IC50 (MES-SA)/IC50 (MES-SA/B1) (MES-SA/B1): 0.22; IC50 (MES-SA [1]): 0.26 µM; SR Dx5 = IC50 (MES-SA)/IC50 (MES-SA/Dx5) (MES-SA/Dx5 [2]): 0.15; IC50 (MES-SA/Dx5 [2]; Homo sapiens, MES-SA/Dx5, 144 h): 1.7 µM |
| [RuCym(HQCl-Pyr)Cl]Cl [(2)] | 0.1 | 3.2 | 2.78 | 8.47 ± 0.04 | 10.40 ± 0.03 | –0.12 ± 0.02 | +0.23 ± 0.03 | +0.46 ± 0.02 | > 100 | > 100 | 5.2 ± 0.1 | > 100 | 8.97 | 5.3 ± 0.2 | logK’ (H2O/Cl–) ([9]; RuCym complexes titrated at pH 6.0): 1.60 ± 0.07; pKa (H2O) [13]: 8.42 ± 0.03; pKa (Npyr/pipH+) [13]: 10.32 ± 0.03 |
| Cc1c(C)c(C)[c-](C)c1C.[Cl-].[Cl-].[O-]c1c(C[NH+]2CCCC2)cc(Cl)c2cccnc12.[Rh+3] [(1), [RhCp*(HQCl-Pyr)Cl]Cl] | 1.3 | 16.0 | 0.19 | 9.35 ± 0.03 | 10.47 ± 0.03 | –0.11 ± 0.01 | +0.12 ± 0.01 | +0.22 ± 0.01 | 50 | 50 | 5.0 ± 0.1 | 50 | 2.97 | 5.1 ± 0.1 | logK’ [M(arene)L]7.4 conditional formation constant [14]: 12.06 ± 0.02; logK’ (H2O/Cl–) ([9]; RhCp* complexes titrated at pH 7.4): 2.23 ± 0.02 |
